Values after ≈ are worked out from the molar mass of the structure shown.
How the values were obtained:
Mtb 352 = experiment: microbe, parasite or virus in culture; assay type: cell-based, Mycobacterium tuberculosis; conditions: Mycobacterium tuberculosis, 352, read-out: MIC (µg/ml) Mtb 352
Mtb 56 = experiment: microbe, parasite or virus in culture; assay type: cell-based, Mycobacterium tuberculosis; conditions: Mycobacterium tuberculosis, 56, read-out: MIC (µg/ml) Mtb 56
Mtb 276 = experiment: microbe, parasite or virus in culture; assay type: cell-based, Mycobacterium tuberculosis; conditions: Mycobacterium tuberculosis, 276, read-out: MIC (µg/ml) Mtb 276
[1] = test system: M. tuberculosis ATCC 35801 (strain Erdman); experiment: Microtiter broth dilution MIC, Mtb Erdman; conditions: resistance pattern, S3 Table
Mtb 365 = experiment: microbe, parasite or virus in culture; assay type: cell-based, Mycobacterium tuberculosis; conditions: Mycobacterium tuberculosis, 365, read-out: MIC (µg/ml) Mtb 365
[2] = test system: MDR and XDR strains of M. tuberculosis; experiment: microbe, parasite or virus in culture; assay type: cell-based; conditions: Mycobacterium tuberculosis, read-out: MIC values across the resistant strains
Mtb 5 = experiment: microbe, parasite or virus in culture; assay type: cell-based, Mycobacterium tuberculosis; conditions: Mycobacterium tuberculosis, 5, read-out: MIC (µg/ml) Mtb 5

SMILES	MIC (Mtb 352)	MIC (Mtb 56)	MIC (Mtb 276)	MIC (µg/ml) Mtb Erdmann [1]	MIC (Mtb 365)	MIC [2]	MIC (Mtb 5)
CC[C@@H](CO)NCCN[C@@H](CC)CO [Ethambutol, reference compound]	1 µg/mL (≈ 4.89 µM)	32 µg/mL (≈ 157 µM)	4 µg/mL (≈ 19.6 µM)	1 µg/mL (≈ 4.89 µM)	32 µg/mL (≈ 157 µM)		
NNC(=O)c1ccncc1 [INH, Isoniazid, reference compound]	1 µg/mL (≈ 7.29 µM)	2 µg/mL (≈ 14.6 µM)	0.25 µg/mL (≈ 1.82 µM)	0.06 µg/mL (≈ 0.438 µM)	4 µg/mL (≈ 29.2 µM)	0.25 to 4 µg/mL (≈ 1.82 to 29.2 µM)	2 µg/mL (≈ 14.6 µM)
COc1c(N2C[C@@H]3CCCN[C@@H]3C2)c(F)cc2c(=O)c(C(=O)O)cn(C3CC3)c12 [Moxifloxacin, reference compound]				0.06 µg/mL (≈ 0.149 µM)	0.06 µg/mL (≈ 0.149 µM)		1 µg/mL (≈ 2.49 µM)
CO[C@H]1/C=C/O[C@@]2(C)Oc3c(C)c(O)c4c(O)c(c(/C=N/N5CCN(C)CC5)c(O)c4c3C2=O)NC(=O)/C(C)=C\C=C\[C@H](C)[C@H](O)[C@@H](C)[C@@H](O)[C@@H](C)[C@H](OC(C)=O)[C@@H]1C [RIF, rifampin, reference compound]	0.001 µg/mL (≈ 0.00122 µM)	32 µg/mL (≈ 38.9 µM)	0.015 µg/mL (≈ 0.0182 µM)	0.004 µg/mL (≈ 0.00486 µM)	64 µg/mL (≈ 77.8 µM)		8 µg/mL (≈ 9.72 µM)
[H]/N=C(/N)N[C@H]1[C@H](O)[C@@H](O)[C@H](O[C@@H]2O[C@@H](C)[C@](O)(C=O)[C@H]2O[C@@H]2O[C@@H](CO)[C@H](O)[C@@H](O)[C@@H]2NC)[C@@H](N/C(N)=N\[H])[C@@H]1O [Streptomycin, reference compound]	0.25 µg/mL (≈ 0.43 µM)	32 µg/mL (≈ 55 µM)	0.25 µg/mL (≈ 0.43 µM)		32 µg/mL (≈ 55 µM)		

Reference: paper PMC5006990 (PLoS ONE, 2016)
